Source: US20260317357A1, “HETEROCYCLIC COMPOUNDS AS STING AGONISTS” (LigaChem Biosciences Inc., priority 2022, published 2026)

molecular target: T1, hSTING-R232 (Homo sapiens, UniProt Q86WV6, H232R); experiment: STING agonist activity, THP1 Dual KI-hSTING-R232 IRF luciferase reporter cells; format: cell-based; settings: 24 hours
T1 construct: host or cells: THP1 Dual KI-hSTING-R232 (STING HAQ gene removed, R232 variant gene introduced)
Experimental: In order to evaluate the activity of the STING agonist, reporter cells from Invivogen were used. The cell lines used in the experiment were THP1 Dual™ (InvivoGen #thpd-nfis) expressing the endogenous STING variant HAQ and THP1 Dual™ KI-hSTING-R232 (InvivoGen #thpd-r232/h232) into which the STING R232 or H232 variant gene was injected after removing the STING HAQ gene. The cell lines have a luciferase reporter gene inserted below the IFN regulatory factor (IRF) promoter, and thus the activity of the IFN regulatory factor (IRF) mechanism can be evaluated through luciferase expression.
The reporter cells were plated at 9.0×10^4 cells/100 μL per well in a 96-well plate using RPMI 1640 medium (Gibco, #22400097) supplemented with 10% heat-inactivated FBS and 1×Antibiotic-Antimycotic (Gibco, #15240062), 10 μg/mL blasticidin (Gibco, #A1113902), and 100 μg/mL Zeocin (Gibco, #R25005). The plated cells were cultured at 37° C., 5% CO2 for 24 hours, and then treated with 100 μL of the serially diluted compound in each well, and then cultured at 37° C., 5% CO2 for 24 hours. After culturing, 20 μL of the cell culture medium was transferred to a 96 well white plate, and QUANTI-Luc™ (InvivoGen #rep-qlcl) was added at 50 µL/well. Using a microplate reader (Perkin Elmer), the value of the luminescence signal increased in the experimental group treated with the drug compared to the control group not treated with the drug was calculated. EC50 values were derived according to the concentration of the compound using GraphPad Prism.

T1 sequence (Q86WV6 whole entry H232R): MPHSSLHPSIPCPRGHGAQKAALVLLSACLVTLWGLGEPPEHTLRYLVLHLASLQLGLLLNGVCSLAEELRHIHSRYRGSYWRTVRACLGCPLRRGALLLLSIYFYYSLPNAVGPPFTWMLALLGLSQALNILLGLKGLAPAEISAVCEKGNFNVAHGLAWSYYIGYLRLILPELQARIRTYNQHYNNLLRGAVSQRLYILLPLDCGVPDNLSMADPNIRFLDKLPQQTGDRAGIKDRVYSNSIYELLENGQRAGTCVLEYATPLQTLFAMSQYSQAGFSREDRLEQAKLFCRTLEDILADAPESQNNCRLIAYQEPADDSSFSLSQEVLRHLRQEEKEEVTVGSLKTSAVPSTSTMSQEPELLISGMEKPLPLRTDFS

Point of comparison: `CCn1nc(C)cc1C(=O)Nc1nc2cc(C(N)=O)cc(OC)c2n1C/C=C/Cn1c(NC(=O)c2cc(C)nn2CC)nc2cc(C(N)=O)cc(OC/C=C/Cn3ncc4cc(N)ccc43)c21` [Compound 127], EC50 0.47 nM. Against it:
- CCn1nc(C)cc1C(=O)Nc1nc2cc(C(N)=O)cc(OC)c2n1C/C=C/Cn1c(NC(=O)c2cc(C)nn2CC)nc2cc(C(N)=O)cc(OC/C=C/CN3CCOCC3)c21 [Compound 13] — within 1.5-fold, 0.54 nM
- CCn1nc(C)cc1C(=O)Nc1nc2cc(C(N)=O)cc(OC)c2n1C/C=C/Cn1c(NC(=O)c2cc(C)nn2CC)nc2cc(C(N)=O)cc(OC/C=C/CN3CCNCC3)c21 [Compound 23] — 14-fold higher, 6.43 nM
- CCn1nc(C)cc1C(=O)Nc1nc2cc(C(N)=O)cc(OC)c2n1C/C=C/Cn1c(NC(=O)c2cc(C)nn2CC)nc2cc(C(N)=O)cc(OC/C=C\CN3CCOCC3)c21 [Compound 33] — 2-fold higher, 0.93 nM
- CCn1nc(C)cc1C(=O)Nc1nc2cc(C(N)=O)cc(OC)c2n1C/C=C/Cn1c(NC(=O)c2cc(C)nn2CC)nc2cc(C(N)=O)cc(OC/C=C\CN3CCC(N)CC3)c21 [Compound 38] — 22-fold higher, 10.3 nM
- CCn1nc(C)cc1C(=O)Nc1nc2cc(C(N)=O)cc(OC)c2n1C/C=C/Cn1c(NC(=O)c2cc(C)nn2CC)nc2cc(C(N)=O)cc(OC/C=C\CN3CCNCC3=O)c21 [Compound 43] — 6-fold higher, 2.81 nM
- CCn1nc(C)cc1C(=O)Nc1nc2cc(C(N)=O)cc(OC)c2n1C/C=C/Cn1c(NC(=O)c2cc(C)nn2CC)nc2cc(C(N)=O)cc(OCC#CCN3CCOCC3)c21 [Compound 48] — within 1.5-fold, 0.69 nM
- CCn1nc(C)cc1C(=O)Nc1nc2cc(C(N)=O)cc(O)c2n1C/C=C/Cn1c(NC(=O)c2cc(C)nn2CC)nc2cc(C(N)=O)cc(OC/C=C/Cn3cc(N)cn3)c21 [Compound 69] — 1.8-fold higher, 0.85 nM
- CCn1nc(C)cc1C(=O)Nc1nc2cc(C(N)=O)cc(OC)c2n1C/C=C/Cn1c(NC(=O)c2cc(C)nn2CC)nc2cc(C(N)=O)cc(OC/C=C/CC3CCNCC3)c21 [Compound 89] — 15-fold higher, 6.97 nM
- CCn1nc(C)cc1C(=O)Nc1nc2cc(C(N)=O)cc(OC)c2n1C/C=C/Cn1c(NC(=O)c2cc(C)nn2CC)nc2cc(C(N)=O)cc(OC/C=C/COc3cccc(N)c3)c21 [Compound 95] — 3.7-fold higher, 1.75 nM
- CCn1nc(C)cc1C(=O)Nc1nc2cc(C(N)=O)cc(OC)c2n1C/C=C/Cn1c(NC(=O)c2cc(C)nn2CC)nc2cc(C(N)=O)cc(OC/C=C/Cn3ncc(CN)n3)c21 [Compound 110] — 2.9-fold higher, 1.36 nM
- CCn1nc(C)cc1C(=O)Nc1nc2cc(C(N)=O)cc(OC)c2n1C/C=C/Cn1c(NC(=O)c2cc(C)nn2CC)nc2cc(C(N)=O)cc(OC/C=C/[C@@H]3CCCN3)c21 [Compound 120] — 4.8-fold higher, 2.25 nM
- CCn1nc(C)cc1C(=O)Nc1nc2cc(C(N)=O)cc(OC)c2n1C/C=C/Cn1c(NC(=O)c2cc(C)nn2CC)nc2cc(C(N)=O)cc(OC/C=C/Cn3cc(CN)nn3)c21 [Compound 139] — 4.8-fold higher, 2.25 nM
- CCn1nc(C)cc1C(=O)Nc1nc2cc(C(N)=O)cc(OC)c2n1C/C=C/Cn1c(NC(=O)c2cc(C)nn2CC)nc2cc(C(N)=O)cc(OC/C=C/CN)c21 [Compound 145] — 4.7-fold higher, 2.23 nM
- CCn1nc(C)cc1C(=O)Nc1nc2cc(C(N)=O)cc(OC)c2n1C/C=C/Cn1c(NC(=O)c2cc(C)nn2CC)nc2cc(C(N)=O)cc(OC/C=C/CNC(=O)N3CCNCC3)c21 [Compound 147] — 8.6-fold higher, 4.03 nM
- CCn1nc(C)cc1C(=O)Nc1nc2cc(C(N)=O)cc(OC)c2n1C/C=C/Cn1c(NC(=O)c2cc(C)nn2CC)nc2cc(C(N)=O)cc(OC/C=C/Cn3cc(N)c(C(=O)OC)n3)c21 [Compound 163] — 2-fold higher, 0.96 nM
- CCn1nc(C)cc1C(=O)Nc1nc2cc(C(N)=O)cc(OC)c2n1C/C=C/Cn1c(NC(=O)c2cc(C)nn2CC)nc2cc(C(N)=O)cc(OC/C=C/Cn3cc(N)c(C(=O)O)n3)c21 [Compound 164] — 2.2-fold higher, 1.04 nM
- CCn1nc(C)cc1C(=O)Nc1nc2cc(C(N)=O)cc(OC)c2n1C/C=C/Cn1c(NC(=O)c2cc(C)nn2CC)nc2cc(C(N)=O)cc(OC/C=C/CNC(=N)N)c21 [Compound 166] — 2.5-fold higher, 1.17 nM
- CCn1nc(C)cc1C(=O)Nc1nc2cc(C(N)=O)cc(OC)c2n1C/C=C/Cn1c(NC(=O)c2cc(C)nn2CC)nc2cc(C(N)=O)cc(OC/C=C/Cn3cc(NCCC(=O)O)cn3)c21 [Compound 175] — 8.4-fold higher, 3.96 nM
